In patent publication US20250064846A1, “TREATMENT AND PREVENTION OF TRIGEMINAL NEURALGIA” (THE JOHNS HOPKINS UNIVERSITY, priority 2022, published 2025):

Legend:
maxillary nerves = test: Myelin basic protein (MBP) immunostaining of maxillary nerves; assay type: in vivo, mouse; details: ten days post-surgery; sulforaphane 10, exemestane 10, JQ-1 40 mg/kg, i.p. daily; vs vehicle-treated ligated nerves
Experimental: Histology Maxillary nerves from mice were dissected and fixed in cold 4% formaldehyde (v/v) overnight at 4° C. Tissues were then cryoprotected through a series of 10%, 20%, and 30% sucrose (w/v) gradients for 24 hrs each at 4° C. Tissues were then embedded in Optimal Cutting Temperature compound (OCT) and sectioned in 20 μm intervals with a cryostat, after which the sections were dried onto slides and kept at […]. Sections were then processed for immunohistochemistry.
Immunohistochemistry was performed as previously described (Vasavda C et al., Cell Chem Biol 2019; 26(10):1450-1460.e7, incorporated herein by reference in its entirety). Briefly, sections were post-fixed with 4% parafomaldehyde for 15 min at 25° C. and then permeabilized with 100% methanol for 7 min at −20° C. The slides were then pre-incubated in blocking solution (10% normal goat serum (ThermoFisher Scientific)) for 30 min at 25° C. Sections were incubated overnight at 4° C. with the appropriate primary antibodies in blocking solution. Sections were washed and incubated with the appropriate secondary antibodies diluted 1:250 in blocking solution for 1 h at 25° C. Tissues were then mounted with ProLong Gold Antifade Mountant with DAPI (Invitrogen).
MBP immunostaining: Mice were first dosed daily with either sulforaphane (10 mg/kg, i.p.), exemestane (10 mg/kg, i.p.), JQ-1 (40 mg/kg, i.p.), or the appropriate vehicle for two days before surgical ligation of the maxillary nerve, after which they were dosed every 24 h for 10 days thereafter. MBP immunostaining was performed ten days post-surgery. MBP stains were interpreted by a pathologist to morphologically assess the degree of damage from nerve injury and response to drug treatment. Antibodies: primary antibodies: chicken anti-MBP (1:500); secondary antibodies: goat anti-chicken (Alexa 488, A32931 Invitrogen).

NRF2 target genes [1] = details: corneal fibroblasts and monocytes; cited from earlier work
NRF2 target genes [2] = test: Quantitative PCR of NRF2 target genes from maxillary nerves; assay type: in vivo, mouse; details: qPCR normalized to Actb, 11 days of treatment, i.p.; for Hmox1 expression in maxillary nerves / Prdx1 expression in maxillary nerves / Txnrd1 expression in maxillary nerves: exemestane 10 or JQ-1 40 mg/kg
Experimental: FIGS. 17A-17J show differential upregulation of NRF2 target genes after treatment with exemestane and JQ-1. Quantitative PCR analysis of Ngo1, Hmox1 Txnrd1, Prdx1, and Gclc, as indicated, normalized to Actb from maxillary nerves of mice after 11 days of treatment with either exemestane (FIGS. 17A-17E; 10 mg/kg, i.p.) or JQ-1 (FIGS. 17F-17J; 40 mg/kg, i.p.) compared to vehicle is shown. Points represent individual mice. Median and range depicted. *=P<0.05. **=P<0.01, and ns=P>0.05 by two-tailed unpaired Student's t-test.
DNA/RNA Isolation. PCR, and Quantitative-PCR (q-PCR) Total cellular or tissue DNA/RNA was extracted using the DNeasy Blood & Tissue Kit (Qiagen) for DNA or RNeasy Plus Universal Kit (Qiagen) for RNA per the manufacturer's instructions. PCR was performed with the Platinum Taq DNA Polymerase High Fidelity Kit (Invitrogen), whereas q-PCR was performed with the TaqMan RNA-to-Ct I-Step Kit (Applied Biosystems).

NRF2 target genes [3] = test: RNA-sequencing of primary human dermal fibroblasts; assay type: cell-based; details: 48 hours, 0.25 μM JQ-1
Experimental: RNA-sequencing RNA sequencing was performed as previously described (See Shin, J. Y. et al. Sci Transl Med 11, eaaw0790 (2019)). To assess the transcriptional signature of JQ-1, total RNA was isolated from three independent human fibroblast lines after 48 hours of treatment with DMSO or 0.25 μM JQ-1 using TRizol and RNeasy isolation columns (Qiagen) as per the manufacturer's instructions. DNA was digested with DNase treatment. All samples had RNA integrity numbers 9.60 or higher as measured with an Agilent 2100 Bioanalyzer. mRNA was enriched by poly-A selection, prepped using an Illumina TruSeq mRNA sample preparation kit, and sequenced by Illumina HiSeq 2000.
Differential Gene Expression and Pathway Enrichment Analyses Differential gene expression analysis was performed using BioJupies 126.

NRF2 target genes [4] = test: Upregulation of canonical NRF2 target genes (no method given); assay type: cell-based
NRF2 = test: NRF2/MAP2 immunostaining in trigeminal ganglia; assay type: in vivo, mouse; details: immunohistochemistry 24 h after the fourth dose; 10 mg/kg, i.p.

## Cc1sc2c(c1C)C(c1ccc(Cl)cc1)=N[C@@H](CC(=O)OC(C)(C)C)c1nnc(C)n1-2 [JQ-1, (S)-tert-butyl 2-(4-(4-chlorophenyl)-2,3,9-trimethyl-6H-thieno[3,2-f][1,2,4]triazolo[4,3-a][1,4]diazepin-6-yl)acetate]
Maxillary nerves
  nerve architecture by myelin basic protein staining: better preserved nerve architecture with increased density of myelinated axons of varying sizes
NRF2 target genes [1]
  upregulation of NQO1 and HMOX1: upregulates NQO1 and HMOX1
NRF2 target genes [2]
  Hmox1 expression in maxillary nerves: most potently upregulated
  Prdx1 expression in maxillary nerves: upregulated
  Txnrd1 expression in maxillary nerves: did not increase
NRF2 target genes [3]
  expression of canonical NRF2 target genes (NQO1, FTL, PRDX1, TXN, EGR1): upregulated a number of canonical NRF2 target genes
  rank of the NRF2 pathway in gene ontology and genetic network analyses: second most upregulated pathway

## C=C1C[C@@H]2[C@H](CC[C@]3(C)C(=O)CC[C@@H]23)[C@@]2(C)C=CC(=O)C=C12 [exemestane, 6-methylenandrosta-1,4-diene-3,17-dione]
Maxillary nerves
  nerve architecture by myelin basic protein staining: better preserved nerve architecture with increased density of myelinated axons of varying sizes
NRF2 target genes [2]; exemestane 10 mg/kg
  Nqo1 expression in maxillary nerves: upregulated
NRF2 target genes [2]
  Hmox1 expression in maxillary nerves: upregulated
  Prdx1 expression in maxillary nerves: upregulated
  Txnrd1 expression in maxillary nerves: upregulated
NRF2 target genes [4]
  induction of the canonical NRF2 target Nqo1: upregulated the canonical NRF2 target Ngo1
NRF2
  NRF2 expression in neurons of the trigeminal ganglion: robustly increased NRF2 expression

## C[S+]([O-])CCCCN=C=S (stereo not shown) [sulforaphane, 1-isothiocyanato-4-(methanesulfinyl)butane]
Maxillary nerves
  nerve architecture by myelin basic protein staining: more normal architecture with myelinated axons of varying sizes
NRF2
  NRF2 expression in neurons of the trigeminal ganglion: robustly increased NRF2 expression
